Source: US20250368647A1, “NITROGEN CONTAINING CONDENSED 2,3-DIHYDROQUINAZOLINONE COMPOUNDS AS NAV1.8 INHIBITORS” (GLAXOSMITHKLINE INTELLECTUAL PROPERTY DEVELOPMENT LIMITED, priority 2022, published 2025)
Structures can show the parent of a compound that is named as a salt.

Molecular target: human Nav1.8 (Homo sapiens (Human), UniProt Q9Y5Y9)
Experiment: QPatch 48 HTX voltage-clamp electrophysiology, half inactivation state (V1/2) protocol, HEK293-Nav1.8 cells
Type: cell-based
Settings: HEK293 cells expressing human Nav1.8, human Navβ1 and human TREK1, P2 current
Experimental: Human embryonic kidney 293 cells (HEK293) expressing human Nav1.8, human Navβ1 and human TREK1 (HEK293-Nav1.8) were grown in T150 cell culture flasks at 37° C., 5% CO2 incubator. HEK293-Nav1.8 were passaged every 2-3 days when confluency reached 80-90% in T150 cell culture flasks.
Pharmacological assessment of compounds of the invention was performed using the QPatch 48 HTX electrophysiological platform. HEK293-Nav1.8 cells were prepared on the day of use by removing culture media, washing in DPBS, adding Accutase (2 mL to cover the surface, aspirate 1 mL then 1-2 minutes at 37° C.) followed by addition of CHO-SFM II to stop the enzyme digestion and in order to obtain a suspension of 3×10^6 cell/mL.
Compounds of the invention were prepared in an extracellular solution of the following composition: NaCl (145 mM), KCl (4 mM), CaCl2) (2 mM), MgCl (2 mM), HEPES (1 mM), Glucose (10 mM), pH 7.4 with NaOH Osmolality 300 mOsM/L. An intracellular solution of the following composition was used: CsF (115 mM), CsCl (20 mM), NaCl (5 mM), EGTA (10 mM), HEPES (10 mM), Sucrose (20 mM), pH 7.2 with CsOH Osmolality 310 mOsm/L.
Utilizing the voltage-clamp mode in the QPatch 48 HTX system a half inactivation state voltage protocol (V1/2) was used to determine pharmacological activity of compounds of the invention at Nav1.8 ion channels. A V1/2 protocol was utilized with the following voltage steps: a holding voltage of −100 mV was established followed by a 20 ms voltage step to 0 mV (P1), followed by an inactivating voltage step at −46 mV for 8 seconds, followed by a step to −100 mV for 20 ms, before a 20 ms step to 0 mV (P2), then returned to the holding voltage of −100 mV. This voltage protocol was repeated at a frequency of every 15 seconds, the current magnitude was quantified at the P2 step throughout the recording. Inhibition of the measured current amplitude with compounds of the invention was analyzed by fitting a 4-6 points dose-response curve allowing determination of the fifty percent inhibition concentration (IC50). P2 currents were normalized according to measurements made at baseline (Baseline, vehicle only), after compound (Input, at each test concentration), and after positive reference compound (FullResponse, to achieve complete block), fit to the following equation: […]
To assess current run-down over the course of the experiment vehicle-only wells were utilized and the normalized current with vehicle-only (n.IVEH) was determined. To correct the compound response for run-down, the currents were corrected according to the following formula: […]
Compound inhibition was fitted to the following Hill Equation to estimate the half maximal inhibition concentration (IC50)
[formula] • where Y is the normalized run-down corrected inhibition relative to the vehicle control (equivalent to n.IRD_Correct), C the test compound concentration, IC50 the concentration of test compound to inhibit the sodium current by 50%, and h the Hill coefficient.

Chain of human Nav1.8 (Q9Y5Y9 whole entry): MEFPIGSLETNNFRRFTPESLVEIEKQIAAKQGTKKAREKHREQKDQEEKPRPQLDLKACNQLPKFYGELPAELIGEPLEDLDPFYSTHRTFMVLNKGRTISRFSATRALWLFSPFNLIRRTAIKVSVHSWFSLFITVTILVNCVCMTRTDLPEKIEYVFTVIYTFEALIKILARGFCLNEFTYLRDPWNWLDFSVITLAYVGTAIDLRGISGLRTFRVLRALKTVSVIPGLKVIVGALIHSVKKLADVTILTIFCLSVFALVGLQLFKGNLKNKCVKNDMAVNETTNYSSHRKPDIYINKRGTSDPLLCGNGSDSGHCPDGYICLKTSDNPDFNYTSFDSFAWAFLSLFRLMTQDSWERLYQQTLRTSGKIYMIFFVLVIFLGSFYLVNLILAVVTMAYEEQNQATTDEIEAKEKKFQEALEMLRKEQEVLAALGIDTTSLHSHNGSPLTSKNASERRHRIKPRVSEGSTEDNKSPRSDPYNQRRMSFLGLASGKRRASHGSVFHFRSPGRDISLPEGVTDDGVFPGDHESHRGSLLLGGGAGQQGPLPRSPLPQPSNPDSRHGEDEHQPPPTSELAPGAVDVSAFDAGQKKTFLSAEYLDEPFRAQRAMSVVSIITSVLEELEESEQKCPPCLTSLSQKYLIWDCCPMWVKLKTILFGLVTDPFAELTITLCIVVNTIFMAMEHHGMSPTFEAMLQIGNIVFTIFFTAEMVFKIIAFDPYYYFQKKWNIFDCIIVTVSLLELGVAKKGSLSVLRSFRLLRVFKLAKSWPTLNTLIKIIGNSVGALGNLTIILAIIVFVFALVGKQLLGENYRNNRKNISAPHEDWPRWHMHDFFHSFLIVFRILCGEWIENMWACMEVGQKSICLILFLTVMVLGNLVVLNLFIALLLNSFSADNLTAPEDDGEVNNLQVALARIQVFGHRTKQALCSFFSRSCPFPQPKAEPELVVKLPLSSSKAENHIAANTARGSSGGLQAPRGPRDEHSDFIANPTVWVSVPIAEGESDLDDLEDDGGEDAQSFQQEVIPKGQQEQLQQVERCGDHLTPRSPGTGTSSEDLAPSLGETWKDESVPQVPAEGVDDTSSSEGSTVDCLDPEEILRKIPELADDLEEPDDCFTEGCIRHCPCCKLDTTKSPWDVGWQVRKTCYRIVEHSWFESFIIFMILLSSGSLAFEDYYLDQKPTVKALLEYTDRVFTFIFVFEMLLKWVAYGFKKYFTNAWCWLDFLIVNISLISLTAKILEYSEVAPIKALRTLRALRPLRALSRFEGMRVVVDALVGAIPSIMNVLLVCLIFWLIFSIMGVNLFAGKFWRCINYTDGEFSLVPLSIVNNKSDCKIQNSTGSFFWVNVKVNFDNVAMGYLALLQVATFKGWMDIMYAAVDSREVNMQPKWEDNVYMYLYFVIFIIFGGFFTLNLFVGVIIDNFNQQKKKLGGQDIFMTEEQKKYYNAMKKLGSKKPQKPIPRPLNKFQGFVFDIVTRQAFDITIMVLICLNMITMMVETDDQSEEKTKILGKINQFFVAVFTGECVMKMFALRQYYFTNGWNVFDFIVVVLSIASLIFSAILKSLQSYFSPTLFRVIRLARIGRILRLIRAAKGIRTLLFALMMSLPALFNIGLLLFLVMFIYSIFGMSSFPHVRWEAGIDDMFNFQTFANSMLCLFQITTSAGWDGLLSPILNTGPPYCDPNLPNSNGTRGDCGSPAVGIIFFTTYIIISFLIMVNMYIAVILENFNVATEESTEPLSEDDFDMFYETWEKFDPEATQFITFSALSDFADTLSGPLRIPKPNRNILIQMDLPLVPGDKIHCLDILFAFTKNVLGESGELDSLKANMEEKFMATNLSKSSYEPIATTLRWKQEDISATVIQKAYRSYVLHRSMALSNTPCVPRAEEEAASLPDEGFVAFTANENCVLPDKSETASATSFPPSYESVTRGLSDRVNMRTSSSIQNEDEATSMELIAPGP
Chain of human Nav1.8 (Q07699 19-218 partner): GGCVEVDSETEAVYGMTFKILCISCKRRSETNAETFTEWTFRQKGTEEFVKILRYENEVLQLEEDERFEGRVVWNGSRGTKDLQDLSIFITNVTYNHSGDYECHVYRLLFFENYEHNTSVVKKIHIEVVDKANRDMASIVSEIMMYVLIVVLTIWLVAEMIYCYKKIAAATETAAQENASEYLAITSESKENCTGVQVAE

SMILES	Nav1.8, pIC50	IC50 (read-out: Nav1.8, pIC50 (converted))
Cl.N#Cc1cc2c(cc1Cl)C(=O)N1CN2c2ccc(F)cc2CCCNc2[nH]c(=O)ccc21 [Example 100, 2-Chloro-8-fluoro-15,19-dioxo-10,11,12,13,14,15-hexahydro-19H-5,18-methano-dibenzo[f,i]pyrido[2,3-b][1,4,8]triazacyclotridecine-3-carbonitrile, hydrochloride]	7.5	
Cl.O=C1c2cc(F)c(F)cc2N2CN1c1ccc(=O)[nH]c1CCNCc1cc(OC(F)(F)F)ccc12 [Example 86, 2,3-Difluoro-8-(trifluoromethoxy)-10,11,12,13-tetrahydro-19H-5,18-methanodibenzo[c,f]pyrido[3,2-j][1,5,9]triazacyclotridecine-15,19(14H)-dione hydrochloride]	7.5	
O=C1c2ccc(C(F)(F)F)cc2N2CN1c1ccc(=O)[nH]c1NCCCCc1cc(F)ccc12 [Example 12, 3^4-Fluoro-2^7-(trifluoromethyl)-1^1,1^2,2^1,2^2,2^3,2^4-hexahydro-8-aza-2(3,1)-quinazolina-1(5,6)-pyridina-3(1,2)-benzenacyclooctaphane-1^2,2^4-dione]	7.6	
Cl.O=C1c2cc(F)c(C(F)(F)F)cc2N2CN1c1ccc(=O)[nH]c1CCCNCc1cc(F)ccc12 [Example 107, 2^6,3^4-Difluoro-2^7-(trifluoromethyl)-1^1,1^2,2^1,2^2,2^3,2^4-hexahydro-5-aza-2(3,1)-quinazolina-1(5,6)-pyridina-3(1,2)-benzenacyclooctaphane-1^2,2^4-dione hydrochloride]	7.3	
O=C1c2cc(F)c(Cl)cc2N2CN1c1ccc(=O)[nH]c1CCNCc1c2ccc(F)c1F [Example 50, 3-Chloro-2,8,9-trifluoro-10,11,12,13-tetrahydro-19H-5,18-methanodibenzo-[c,f]pyrido[3,2-j][1,5,9]triazacyclotridecine-15,19(14H)-dione]	8	
COc1c(F)ccc2c1CNCCc1[nH]c(=O)ccc1N1CN2c2cc(C#N)c(F)cc2C1=O.Cl [Example 73, 2,8-Difluoro-9-methoxy-15,19-dioxo-10,11,12,13,14,15-hexahydro-19H-5,18-methanodibenzo-[c,f]pyrido[3,2-j][1,5,9]triazacyclotridecine-3-carbonitrile hydrochloride]	6.1	
O=C1c2ccc(C(F)(F)F)cc2N2CN1c1ccc(=O)[nH]c1C/C=C\Cc1cc(F)ccc12 [Example 5, 8-Fluoro-3-(trifluoromethyl)-10,13-dihydro-19H-5,18-methanodibenzo[b,l]pyrido[3,2f][1,5]diazacyclo tridecin-15,19(14H)-dione]	6.3	
N#Cc1cc2c(cc1F)C(=O)N1CN2c2ccc(F)c(Cl)c2CNCCc2[nH]c(=O)ccc21 [Example 67, 9-chloro-2,8-difluoro-15,19-dioxo-10,11,12,13,14,15-hexahydro-19H-5,18-methanodibenzo[c,f]pyrido[3,2-j][1,5,9]triazacyclotridecine-3-carbonitrile]	8.3	
O=C1c2cc(C(F)(F)F)ccc2N2CN1c1cc(Cl)c(=O)[nH]c1NCCCc1cc(F)ccc12 [Example 29, 16-Chloro-8-fluoro-2-(trifluoromethyl)-10,11,12,13-tetrahydro-19H-5,18-methanodibenzo[f,i]pyrido[2,3,-b][1,4,8]triazacyclotridecine-15,19(14H)-dione]	7.1	
O=C1c2cc(F)c(C(F)(F)F)cc2N2CN1c1ccc(=O)[nH]c1CNCCc1cc(F)ccc12 [Example 102, 2,8-Difluoro-3-(trifluoromethyl)-10,11,12,13-tetrahydro-19H-5,18-methanodibenzo[b,l]pyrido[3,2-f][1,5,9]triazacyclotridecine-15,19(14H)-dione]	7.1	
O=C1c2cc(F)c(C(F)(F)F)cc2N2CN1c1ccc(=O)[nH]c1NCCCc1c2ccc(F)c1F [Example 92, 2,8,9-Trifluoro-3-(trifluoromethyl)-10,11,12,13-tetrahydro-19H-5,18-methano-dibenzo[f,i]pyrido[2,3-b][1,4,8]triazacyclotridecine-15,19(14H)-dione, methanesulfonic acid salt]	8.4	
O=C1c2c(ccc(C(F)(F)F)c2F)N2CN1c1ccc(=O)[nH]c1NCCCc1c2ccc(F)c1F [Example 97, 1,8,9-Trifluoro-2-(trifluoromethyl)-10,11,12,13-tetrahydro-19H-5,18-methanodibenzo[f,i]pyrido-[2,3-b][1,4,8]triazacyclotridecine-15,19(14H)-dione]	7.6	
Cl.[2H]C1([2H])N2C(=O)c3cc(F)c(F)cc3N1c1ccc(F)c(Cl)c1CNCCc1[nH]c(=O)ccc12 [Example 65, 9-Chloro-2,3,8-trifluoro-10,11,12,13-tetrahydro-19H-5,18-methanodibenzo[c,f]pyrido[3,2-j][1,5,9]triazacyclotridecine-15,19(14H)-dione-20,20-d2 hydrochloride]	8.3	
O=C1c2cc(C(F)(F)F)ccc2N2CN1c1ccc(=O)[nH]c1CCCCCc1cc(F)ccc12 [Example 7, 3^4-Fluoro-2^6-(trifluoromethyl)-1^1,1^2,2^1,2^2,2^3,2^4-hexahydro-2(3,1)-quinazolina-1(5,6)-pyridina-3(1,2)-benzenacyclooctaphane-1^2,2^4-dione]	8.1	
O=C1c2ccc(C(F)(F)F)cc2N2CN1c1ccc(=O)[nH]c1CCCCCc1cc(F)ccc12 [Example 8, 3^4-Fluoro-2^7-(trifluoromethyl)-1^1,1^2,2^1,2^2,2^3,2^4-hexahydro-2(3,1)-quinazolina-1(5,6)-pyridina-3(1,2)-benzenacyclooctaphane-1^2,2^4-dione]	8.4	
O=C1c2cc(F)c(F)cc2N2CN1c1ccc(=O)[nH]c1CCNCc1c2ccc(F)c1O.O=CO [Example 84, 2,3,8-Trifluoro-9-hydroxy-10,11,12,13-tetrahydro-19H-5,18-methanodibenzo-[c,f]pyrido[3,2-j][1,5,9]triazacyclotridecine-15,19(14H)-dione, formic acid salt]	5.5	
CN1CCCc2cc(F)ccc2N2CN(C(=O)c3cc(C(F)(F)F)ccc32)c2ccc(=O)[nH]c21 [Example 30, 8-Fluoro-13-methyl-2-(trifluoromethyl)-10,11,12,13-tetrahydro-19H-5,18-methanodibenzo[f,i]pyrido[2,3,-b][1,4,8]triazacyclotridecine-15,19(14H)-dione]	6.9	
Cl.N#Cc1c(F)ccc2c1CNCCc1[nH]c(=O)ccc1N1CN2c2cc(C(F)(F)F)c(F)cc2C1=O [Example 82, 2,8-Difluoro-15,19-dioxo-3-(trifluoromethyl)-10,11,12,13,14,15-hexahydro-19H-5,18-methanodibenzo[c,f]pyrido[3,2-j][1,5,9]triazacyclotridecine-9-carbonitrile hydrochloride]	7.9	
Cl.O=C1c2cc(F)c(C(F)(F)F)cc2N2CN1c1ccc(=O)[nH]c1CCNCc1cc(Cl)ccc12 [Example 66, 8-Chloro-2-fluoro-3-(trifluoromethyl)-10,11,12,13-tetrahydro-19H-5,18-methanodibenzo[c,f]pyrido[3,2-j][1,5,9]triazacyclotridecine-15,19(14H)-dione hydrochloride]	8.2	
C[C@@H]1CCNc2[nH]c(=O)ccc2N2CN(c3cc(C(F)(F)F)c(F)cc3C2=O)c2ccc(F)c(F)c21 [Example 133, (10R)-2,8,9-trifluoro-10-methyl-3-(trifluoromethyl)-10,11,12,13-tetrahydro-19H-5,18-methanodibenzo[f,i]pyrido[2,3-b][1,4,8]triazacyclotridecine-15,19(14H)-dione]		39.8 nM
